Experimental data reported in ChEMBL document CHEMBL1268897, “Discovery and optimization of adamantyl carbamate inhibitors of 11β-HSD1” (Bioorg Med Chem Lett, 2010).
pEC50, pIC50: −log10 of the molar value.

Experiments:
[1] = in vitro; settings: rat, liver microsomes
[2] = target: Cytochrome P450 2D6 (Homo sapiens, UniProt P10635); assay: Inhibition of CYP2D6; assay type: ADME
[3] = target: Cytochrome P450 2C9 (Homo sapiens, UniProt P11712); assay: Inhibition of CYP2C9; assay type: ADME
[4] = target: Cytochrome P450 3A4 (Homo sapiens, UniProt P08684); assay: Inhibition of CYP3A4; assay type: ADME
Cytochrome P450 3A4, sequence (P08684 whole entry): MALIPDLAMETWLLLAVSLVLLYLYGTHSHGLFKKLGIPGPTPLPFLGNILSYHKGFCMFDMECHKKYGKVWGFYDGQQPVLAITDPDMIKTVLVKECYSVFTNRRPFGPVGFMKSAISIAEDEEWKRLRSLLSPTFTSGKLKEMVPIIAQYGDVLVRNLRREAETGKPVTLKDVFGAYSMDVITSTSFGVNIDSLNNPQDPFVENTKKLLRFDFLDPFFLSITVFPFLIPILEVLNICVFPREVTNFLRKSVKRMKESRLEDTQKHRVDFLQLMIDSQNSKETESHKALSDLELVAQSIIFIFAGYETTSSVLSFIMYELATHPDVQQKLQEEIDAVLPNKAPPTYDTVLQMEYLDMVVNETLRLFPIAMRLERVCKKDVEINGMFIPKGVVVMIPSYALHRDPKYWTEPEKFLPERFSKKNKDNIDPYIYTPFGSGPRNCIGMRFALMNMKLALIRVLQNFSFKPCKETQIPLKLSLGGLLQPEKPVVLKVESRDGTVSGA

[5] = target: T1, 3 beta-hydroxysteroid dehydrogenase/Delta 5-->4-isomerase type 2 (Homo sapiens, UniProt P26439); assay: Inhibition of 3betaHSD2
T1 sequence (P26439 whole entry): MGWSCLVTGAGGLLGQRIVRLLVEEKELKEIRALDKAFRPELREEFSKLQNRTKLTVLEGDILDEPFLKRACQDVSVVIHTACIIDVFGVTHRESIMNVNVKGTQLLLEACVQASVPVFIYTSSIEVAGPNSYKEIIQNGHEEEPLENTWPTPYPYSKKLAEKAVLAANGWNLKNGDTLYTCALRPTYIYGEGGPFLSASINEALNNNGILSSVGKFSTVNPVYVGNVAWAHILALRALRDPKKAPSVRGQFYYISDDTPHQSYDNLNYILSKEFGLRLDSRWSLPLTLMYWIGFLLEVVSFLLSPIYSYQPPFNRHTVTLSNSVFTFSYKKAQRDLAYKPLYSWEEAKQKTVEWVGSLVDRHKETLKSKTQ

[6] = Oral bioavailability in rat at 1 umol/kg, iv and 5 umol/kg, po; settings: in vivo
[7] = target: T2, 11-beta-hydroxysteroid dehydrogenase 1 (Homo sapiens, UniProt P28845); assay: Inhibition of recombinant 11betaHSD1 expressed in CHO cells assessed as [3H]-cortisone to [3H]-cortisol by microscintillation plate reader; assay type: cell-based
T2 sequence (P28845 whole entry): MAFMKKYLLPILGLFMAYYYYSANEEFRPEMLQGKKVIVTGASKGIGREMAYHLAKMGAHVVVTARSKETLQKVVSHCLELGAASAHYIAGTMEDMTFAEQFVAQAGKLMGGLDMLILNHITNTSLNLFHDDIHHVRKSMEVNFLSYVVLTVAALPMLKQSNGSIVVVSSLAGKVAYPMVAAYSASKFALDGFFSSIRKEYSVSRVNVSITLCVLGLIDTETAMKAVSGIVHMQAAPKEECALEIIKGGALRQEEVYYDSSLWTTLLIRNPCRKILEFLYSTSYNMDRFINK

[8] = Clearance in rat at 1 umol/kg, iv and 5 umol/kg, po; settings: in vivo
[9] = target: T2, 11-beta-hydroxysteroid dehydrogenase 1; assay: Inhibition of recombinant 11betaHSD1 expressed in CHO cells assessed as [3H]-cortisone to [3H]-cortisol by microscintillation plate reader in presence of plasma; assay type: cell-based
[10] = in vitro; settings: rat, hepatocytes
Description: Metabolic stability in rat hepatocytes assessed as hepatic clearance

[11] = target: T2, 11-beta-hydroxysteroid dehydrogenase 1; assay: Inhibition of 11betaHSD1 in human platelet assessed as [3H]-cortisone to [3H]-cortisol by microscintillation plate reader
[12] = target: 17-beta-hydroxysteroid dehydrogenase type 1 (Homo sapiens) (UniProt P14061); assay: Inhibition of 17betaHSD1
17-beta-hydroxysteroid dehydrogenase type 1 (Homo sapiens), sequence (P14061 whole entry, looked up): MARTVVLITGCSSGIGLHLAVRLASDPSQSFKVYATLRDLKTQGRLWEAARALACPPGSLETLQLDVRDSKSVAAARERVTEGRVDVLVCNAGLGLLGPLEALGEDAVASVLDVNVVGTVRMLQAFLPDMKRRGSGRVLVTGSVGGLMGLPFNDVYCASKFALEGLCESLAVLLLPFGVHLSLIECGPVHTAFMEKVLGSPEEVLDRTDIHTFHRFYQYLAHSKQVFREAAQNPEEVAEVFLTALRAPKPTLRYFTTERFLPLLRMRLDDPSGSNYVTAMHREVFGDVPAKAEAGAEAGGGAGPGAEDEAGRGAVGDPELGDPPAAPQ

[13] = Mean residence time in rat at 1 umol/kg, iv and 5 umol/kg, po; settings: in vivo
[14] = tested on: Rattus norvegicus; assay: Volume of distribution in rat at 1 umol/kg, iv and 5 umol/kg, po; settings: in vivo
[15] = target: T3, 11-beta-hydroxysteroid dehydrogenase type 2 (Homo sapiens, UniProt P80365); assay: Inhibition of 11betaHSD2
T3 sequence (P80365 whole entry): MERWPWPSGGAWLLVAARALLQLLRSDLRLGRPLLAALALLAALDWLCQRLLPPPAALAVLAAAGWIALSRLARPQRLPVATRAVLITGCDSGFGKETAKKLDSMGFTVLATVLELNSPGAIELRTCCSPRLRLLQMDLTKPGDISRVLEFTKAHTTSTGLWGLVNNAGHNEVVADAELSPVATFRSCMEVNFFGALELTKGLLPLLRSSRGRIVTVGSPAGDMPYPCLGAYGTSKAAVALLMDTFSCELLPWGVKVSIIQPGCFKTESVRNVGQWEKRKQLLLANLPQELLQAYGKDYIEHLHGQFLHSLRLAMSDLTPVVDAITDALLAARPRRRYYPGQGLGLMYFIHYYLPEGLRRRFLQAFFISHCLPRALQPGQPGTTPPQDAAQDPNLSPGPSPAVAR

[16] = AUC in rat at 1 umol/kg, iv and 5 umol/kg, po; settings: plasma
[17] = target: T4, Glucocorticoid receptor (Homo sapiens, UniProt P04150); assay: Activity against GR
T4 sequence (P04150 whole entry): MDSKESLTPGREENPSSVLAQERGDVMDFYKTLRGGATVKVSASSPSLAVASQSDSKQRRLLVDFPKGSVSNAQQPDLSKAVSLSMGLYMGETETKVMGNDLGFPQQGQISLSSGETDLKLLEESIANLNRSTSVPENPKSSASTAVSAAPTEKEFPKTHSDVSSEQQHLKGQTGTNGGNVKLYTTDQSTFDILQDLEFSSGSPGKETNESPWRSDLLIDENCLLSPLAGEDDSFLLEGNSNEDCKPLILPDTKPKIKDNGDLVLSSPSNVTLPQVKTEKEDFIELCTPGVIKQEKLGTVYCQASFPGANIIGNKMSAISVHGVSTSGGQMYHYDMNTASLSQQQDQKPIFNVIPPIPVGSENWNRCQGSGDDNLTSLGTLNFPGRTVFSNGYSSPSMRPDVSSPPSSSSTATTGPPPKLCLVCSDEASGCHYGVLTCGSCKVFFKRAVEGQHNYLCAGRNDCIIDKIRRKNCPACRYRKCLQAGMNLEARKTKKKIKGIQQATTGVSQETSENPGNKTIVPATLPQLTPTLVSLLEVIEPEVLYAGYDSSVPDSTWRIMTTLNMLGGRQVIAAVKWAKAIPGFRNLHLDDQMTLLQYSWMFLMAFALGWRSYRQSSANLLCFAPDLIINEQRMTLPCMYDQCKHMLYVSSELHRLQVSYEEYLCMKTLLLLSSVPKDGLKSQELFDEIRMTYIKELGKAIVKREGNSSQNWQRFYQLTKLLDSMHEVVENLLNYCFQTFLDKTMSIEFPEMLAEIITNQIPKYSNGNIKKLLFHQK

[18] = target: T5, Bile acid receptor (Homo sapiens, UniProt Q96RI1); assay: Activity against FXR
T5 sequence (Q96RI1 whole entry): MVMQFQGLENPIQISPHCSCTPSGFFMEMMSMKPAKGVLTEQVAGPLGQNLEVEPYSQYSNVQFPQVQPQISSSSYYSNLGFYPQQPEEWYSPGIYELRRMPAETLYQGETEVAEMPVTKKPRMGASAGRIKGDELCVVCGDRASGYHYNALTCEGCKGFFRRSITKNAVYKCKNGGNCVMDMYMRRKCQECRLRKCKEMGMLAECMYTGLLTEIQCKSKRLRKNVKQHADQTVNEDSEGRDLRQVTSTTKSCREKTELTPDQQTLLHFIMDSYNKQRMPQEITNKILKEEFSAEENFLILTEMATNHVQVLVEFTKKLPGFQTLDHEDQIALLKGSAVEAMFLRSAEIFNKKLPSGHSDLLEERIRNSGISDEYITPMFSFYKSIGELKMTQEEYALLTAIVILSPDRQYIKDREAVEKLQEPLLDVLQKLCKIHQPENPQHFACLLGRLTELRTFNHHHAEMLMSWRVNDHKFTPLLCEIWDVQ

Cytochrome P450 2D6, sequence (P10635 whole entry): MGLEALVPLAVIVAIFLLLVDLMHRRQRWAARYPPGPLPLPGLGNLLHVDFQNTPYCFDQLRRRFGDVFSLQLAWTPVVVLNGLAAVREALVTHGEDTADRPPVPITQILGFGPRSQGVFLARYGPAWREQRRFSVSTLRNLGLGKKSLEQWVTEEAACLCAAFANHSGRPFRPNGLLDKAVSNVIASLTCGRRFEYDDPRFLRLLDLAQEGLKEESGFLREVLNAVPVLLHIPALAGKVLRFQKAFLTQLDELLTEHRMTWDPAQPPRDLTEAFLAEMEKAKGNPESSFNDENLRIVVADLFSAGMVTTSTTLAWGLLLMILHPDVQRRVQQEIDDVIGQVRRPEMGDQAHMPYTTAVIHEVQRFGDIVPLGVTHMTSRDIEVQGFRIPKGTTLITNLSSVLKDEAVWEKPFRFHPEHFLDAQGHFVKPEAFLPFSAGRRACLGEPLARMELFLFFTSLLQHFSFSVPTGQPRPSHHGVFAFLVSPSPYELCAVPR
Cytochrome P450 2C9, sequence (P11712 whole entry): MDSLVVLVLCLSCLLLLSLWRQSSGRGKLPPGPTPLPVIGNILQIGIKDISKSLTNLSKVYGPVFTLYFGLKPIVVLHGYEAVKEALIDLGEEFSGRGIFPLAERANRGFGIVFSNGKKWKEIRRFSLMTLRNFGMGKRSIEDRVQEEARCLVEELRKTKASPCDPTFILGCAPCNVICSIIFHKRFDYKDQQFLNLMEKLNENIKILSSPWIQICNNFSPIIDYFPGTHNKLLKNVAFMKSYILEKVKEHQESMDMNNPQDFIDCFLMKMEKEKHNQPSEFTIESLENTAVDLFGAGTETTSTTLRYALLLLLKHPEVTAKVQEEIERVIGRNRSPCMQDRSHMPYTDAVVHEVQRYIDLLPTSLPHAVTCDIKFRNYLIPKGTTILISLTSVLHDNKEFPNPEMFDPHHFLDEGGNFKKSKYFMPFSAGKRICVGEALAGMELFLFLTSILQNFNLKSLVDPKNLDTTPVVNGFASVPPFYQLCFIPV

| half-life [1] [min] | pIC50 [2] | pIC50 [3] | pIC50 [4] | pIC50 [7] | pIC50 [11] | Compound | also measured |
| --- | --- | --- | --- | --- | --- | --- | --- |
| > 60 | 4.94 | 5.62 | 4.99 | – | – | NC(=O)[C@]12CC3CC(C1)[C@@H](OC(=O)N1CC[C@H](Nc4ccc(C(F)(F)F)cn4)C1)C(C3)C2 | – |
| > 60 | < 4.52 | < 4.52 | 4.77 | 9.06 | 9.40 | N#Cc1cccnc1N[C@@H]1CCN(C(=O)O[C@H]2C3CC4CC2C[C@](C(N)=O)(C4)C3)C1 | pIC50 [5]: < 5.00; bioavailability [6]: 42%; clearance [8]: 42 mL/min/kg; pIC50 [9]: 8.62; CLhep predicted [10]: 41 mL/min/kg; pIC50 [12]: < 5.00; MRT [13]: 18 min; Vd [14]: 0.7 L/kg; pIC50 [15]: 5.13; AUC [16]: 0.398 µM·h |
| 25 | < 4.52 | < 4.52 | 4.73 | 8.59 | 8.12 | N#Cc1cccnc1N[C@H]1CCN(C(=O)O[C@H]2C3CC4CC2C[C@](C(N)=O)(C4)C3)C1 | – |
| 25 | 4.78 | 4.70 | 4.58 | 8.77 | 8.28 | N#Cc1ccc(N[C@H]2CCN(C(=O)O[C@H]3C4CC5CC3C[C@](C(N)=O)(C5)C4)C2)nc1 | – |
| – | – | – | – | 7.01 | < 7.00 | CC(C)(C)OC(=O)N[C@@H]1CCN(C(=O)O[C@H]2C3CC4CC2C[C@](C(C)(C)O)(C4)C3)C1 | – |
| – | – | – | – | 7.67 | < 7.00 | NC(=O)[C@]12CC3CC(C1)[C@@H](OC(=O)N1CC[C@@H](Nc4nnc(C(F)(F)F)s4)C1)C(C3)C2 | – |
| 7 | 5.23 | 5.62 | 5.32 | – | – | NC(=O)[C@]12CC3CC(C1)[C@@H](OC(=O)N1CC[C@@H](Nc4cccc(C(F)(F)F)n4)C1)C(C3)C2 | – |

Continued, molecule first:

| Compound | half-life [1] [min] | pIC50 [2] | pIC50 [3] | pIC50 [4] | pIC50 [7] | pIC50 [11] | also measured |
| --- | --- | --- | --- | --- | --- | --- | --- |
| O=C(OC1C2CC3CC(C2)CC1C3)N1CCCCC1 (centres undefined) | 2 | – | – | – | – | – | – |
| N#Cc1ccc(N[C@@H]2CCN(C(=O)O[C@H]3C4CC5CC3C[C@](C(N)=O)(C5)C4)C2)nc1 | 46 | 4.60 | 4.64 | 4.85 | 8.82 | 8.57 | pIC50 [5]: < 5.00; bioavailability [6]: 27%; clearance [8]: 80 mL/min/kg; pIC50 [9]: 8.49; CLhep predicted [10]: 33 mL/min/kg; pIC50 [12]: < 5.00; MRT [13]: 30 min; Vd [14]: 2.2 L/kg; pIC50 [15]: 5.06; AUC [16]: 0.209 µM·h |
| CC(C)(C)OC(=O)N[C@@H]1CCN(C(=O)OC2C3CC4CC(C3)CC2C4)C1 (some centres undefined) | 2 | < 4.52 | 4.94 | < 4.52 | – | – | – |
| CC(C)(C)CC(=O)N[C@@H]1CCN(C(=O)OC2C3CC4CC(C3)CC2C4)C1 (some centres undefined) | – | – | – | – | 7.17 | – | – |
| CC(C)(C)OC(=O)N[C@@H]1CCN(C(=O)O[C@H]2C3CC4CC2C[C@](C(N)=O)(C4)C3)C1 | 30 | < 4.52 | < 4.52 | < 4.52 | 8.47 | 8.12 | pEC50 [17]: < 5.00; pEC50 [18]: < 5.00 |
| CC(C)(C)OC(=O)N[C@H]1CCN(C(=O)O[C@H]2C3CC4CC2C[C@](C(N)=O)(C4)C3)C1 | – | – | – | – | 8.36 | 7.75 | – |
| Cc1cc(N[C@@H]2CCN(C(=O)O[C@H]3C4CC5CC3C[C@](C(N)=O)(C5)C4)C2)nc(C)n1 | – | – | – | – | 7.68 | < 7.00 | – |
| NC(=O)[C@]12CC3CC(C1)[C@@H](OC(=O)N1CC[C@@H](Nc4ncccc4C(F)(F)F)C1)C(C3)C2 | 30 | – | 5.03 | 5.48 | – | – | – |
| NC(=O)[C@]12CC3CC(C1)[C@@H](OC(=O)N1CC[C@@H](Nc4ccc(C(F)(F)F)cn4)C1)C(C3)C2 | 47 | 4.94 | 5.39 | 5.14 | – | – | – |
| NC(=O)[C@]12CC3CC(C1)[C@H](OC(=O)N1CC[C@H](Nc4ncccc4C(F)(F)F)C1)C(C3)C2 | 11 | < 4.52 | 5.10 | 5.07 | – | – | – |
| OC1C2CC3CC(C2)CC1C3 (centres undefined) [ADAMANTAN-2-OL] | 2 | < 4.52 | 4.66 | < 4.52 | – | – | – |
